Laboratory results taken from patent US7179823B1, “5-membered n-heterocyclic compounds with hypoglycemic and hypolipidemic activity” (Takeda Pharmaceutical Company Limited, priority 1999, dated 2007).
Read-outs that look alike come from different tables or passages of the source.

Tests used:
KKA^y mice [1] = test: Hypoglycemic and hypolipidemic actions in mice; type: in vivo; conditions: four days; for inhibition in vivo at 0.001 % / inhibition in vivo at 0.005 % / inhibition in vivo at 0.01 %: Mus musculus, po, 96 h; for inhibition in vivo at 0.005 %: 0.005% in powdery diet; for inhibition in vivo at 0.01 %: 0.01% in powdery diet
Description: Hypoglycemic and Hypolipidemic Actions in Mice
Test compounds were mixed in a powdery diet (CE-2, Japan Clea) at the concentration of 0.01% (compounds of Examples 12, 30, 89, 186), 0.005% (compounds of Examples 7, 80, 82, 181, 182, 184, 256, 262, 283), 0.001% (compounds of Examples 9, 104, 110, 155, 156, 160, 167, 169, 172, 174, 176, 189), or 0.0003% (compounds of Examples 38, 40, 44), and freely given to KKA^y mice (9 to 12 weeks old, 5 mice in a group), a model of obese and type 2 diabetes mellitus, for four days. During this period, water was given freely. Blood was sampled from orbital venous plexus, and glucose and triglyceride levels in plasma separated from blood were determined enzymatically using L type Wako Glu2 (Wako Pure Chemical Industries, Ltd.) or L type Wako TG•H (Wako Pure Chemical Industries, Ltd.), respectively.
In the Table, the value of each treatment group is represented as percent reduction compared with the non-treatment group.

KKA^y mice [2] = test: Total cholesterol lowering action and plasma anti-arteriosclerosis index-enhancing action in mice; type: in vivo; conditions: four days, non-treatment group taken as 100%; for change in vivo at 0.001 % / inhibition in vivo at 0.001 % / change in vivo at 0.005 % / inhibition in vivo at 0.005 %: Mus musculus, po, 96 h; for change in vivo at 0.001 % / change in vivo at 0.005 %: read-out: Plasma anti-arteriosclerosis index-enchancing action (%); for change in vivo at 0.005 % / inhibition in vivo at 0.005 %: 0.005% in powdery diet
Description: Total Cholesterol Lowering Action and Plasma Anti-Arteriosclerosis Index-Enhancing Action in Mice
Test compounds were mixed in a powdery diet (CE-2, Japan Clea) at the concentration of 0.01% (compounds of Examples 12, 30, 89), 0.005% (compounds of Examples 38, 40, 44, 181, 184, 262, 283), or 0.001% (compounds of Examples 9, 156, 167, 172, 174, 176, 189), and freely given to KKA^y mice (9 to 12 weeks old, 5 mice per group), a model of obese and type 2 diabetes mellitus, for four days. During this period, water was given freely. Blood was sampled from orbital venous plexus and plasma was separated. Total cholesterol levels were determined by using L type Wako Cholesterol (Wako Pure Chemical Industries, Ltd.). Precipitation reagent for apoB containing lipoprotein was added to a part of the plasma to precipitate non-HDL lipoprotein, and cholesterol (HDL cholesterol) in the resulting supernatant was determined. The plasma anti-arteriosclerosis index [(HDL cholesterol/total cholesterol)×100] was calculated by using these cholesterol levels.
In the Table, “Total cholesterol lowering action (%)” represents the percent reduction (%) of total cholesterol level in the treatment group, when the total cholesterol level in the non-treatment group is taken as 100%. “Plasma anti-arteriosclerosis index-enhancing action (%)” represents the percent increase (%) of plasma anti-arteriosclerosis index in the treatment group, when the plasma anti-arteriosclerosis index in the non-treatment group is taken as 100%.

[3] = 0.001% in powdery diet, percent reduction of plasma glucose compared with the non-treatment group, read-out: Hypoglycemic action (%)
[4] = 0.001% in powdery diet, percent reduction of plasma triglyceride compared with the non-treatment group, read-out: Hypolipidemic action (%)
[5] = 0.001% in powdery diet, percent increase of [(HDL cholesterol/total cholesterol)×100]
[6] = 0.001% in powdery diet, percent reduction of plasma total cholesterol
[7] = percent reduction of plasma glucose compared with the non-treatment group, read-out: Hypoglycemic action (%)
[8] = percent reduction of plasma triglyceride compared with the non-treatment group, read-out: Hypolipidemic action (%)
[9] = percent increase of [(HDL cholesterol/total cholesterol)×100]
[10] = percent reduction of plasma total cholesterol

**Q.** Which inhibition in vivo at 0.001 % (KKA^y mice [1]; [3]) does the source give for `CCOc1nn(Cc2ccc(OCc3nc(-c4ccccc4)oc3C)cc2)cc1CCC(=O)O` [Example 155, 3-[3-ethoxy-1-[4-(5-methyl-2-phenyl-4-oxazolylmethoxy)benzyl]-1H-pyrazol-4-yl]propionic acid] here?
**A.** 49%

**Q.** What about the inhibition in vivo at 0.001 % (KKA^y mice [1]; [4]) of the same compound?
**A.** 56%

**Q.** With `CCCOc1nn(Cc2ccc(OCc3nc(-c4ccccc4)oc3C)cc2)cc1CCC(=O)O` [Example 156, 3-[1-[4-(5-methyl-2-phenyl-4-oxazolylmethoxy)benzyl]-3-propyloxy-1H-pyrazol-4-yl]propionic acid] as the compound, how does the inhibition in vivo at 0.001 % (KKA^y mice [1]; [3]) read?
**A.** 45%

**Q.** And the inhibition in vivo at 0.001 % (KKA^y mice [1]; [4])?
**A.** 80%

**Q.** And the change in vivo at 0.001 % (KKA^y mice [2]; [5])?
**A.** 15%

**Q.** What about the inhibition in vivo at 0.001 % (KKA^y mice [2]; [6]) of the same compound?
**A.** 20%

**Q.** What does the source list for `Cc1oc(-c2ccccc2)nc1COc1ccc(Cn2cc(CCC(=O)O)c(OCc3ccccc3)n2)cc1` [Example 160, 3-[3-benzyloxy-1-[4-(5-methyl-2-phenyl-4-oxazolylmethoxy)benzyl]-1H-pyrazol-4-yl]propionic acid]?
**A.** inhibition in vivo at 0.001 % (KKA^y mice [1]; [3]): 54%; inhibition in vivo at 0.001 % (KKA^y mice [1]; [4]): 57%; melting point: 108 to 109 °C

**Q.** What does the source list for `CCOc1nn(Cc2ccc(OCc3nc(-c4ccco4)oc3C)cc2)cc1CCC(=O)O` [Example 167, 3-[3-ethoxy-1-[4-[2-(2-furyl)-5-methyl-4-oxazolylmethoxy]benzyl]-1H-pyrazol-4-yl]propionic acid]?
**A.** inhibition in vivo at 0.001 % (KKA^y mice [1]; [3]): 48%; inhibition in vivo at 0.001 % (KKA^y mice [1]; [4]): 60%; change in vivo at 0.001 % (KKA^y mice [2]; [5]): 9%; inhibition in vivo at 0.001 % (KKA^y mice [2]; [6]): 19%

**Q.** For `Cc1oc(-c2ccco2)nc1COc1ccc(Cn2cc(CCC(=O)O)c(OCc3ccccc3)n2)cc1` [Example 169, 3-[3-benzyloxy-1-[4-[2-(2-furyl)-5-methyl-4-oxazolylmethoxy]benzyl]-1H-pyrazol-4-yl]propionic acid], which inhibition in vivo at 0.001 % (KKA^y mice [1]; [3]) is on record?
**A.** 48%

**Q.** And the inhibition in vivo at 0.001 % (KKA^y mice [1]; [4])?
**A.** 39%

**Q.** For `CCOc1nn(Cc2ccc(OCc3nc(-c4ccccc4)oc3C)c(OC)c2)cc1CCC(=O)O` [Example 172, 3-[3-ethoxy-1-[3-methoxy-4-(5-methyl-2-phenyl-4-oxazolylmethoxy)benzyl]-1H-pyrazol-4-yl]propionic acid], which inhibition in vivo at 0.001 % (KKA^y mice [1]; [3]) is on record?
**A.** 42%

**Q.** And the inhibition in vivo at 0.001 % (KKA^y mice [1]; [4])?
**A.** 62%

**Q.** What about the change in vivo at 0.001 % (KKA^y mice [2]; [5]) of the same compound?
**A.** 11%

**Q.** What about the inhibition in vivo at 0.001 % (KKA^y mice [2]; [6]) of the same compound?
**A.** 20%

**Q.** What does the source list for `CCOc1nn(Cc2ccc(OCc3nc(-c4ccco4)oc3C)c(OC)c2)cc1CCC(=O)O` [Example 174, 3-[3-ethoxy-1-[4-[2-(2-furyl)-5-methyl-4-oxazolylmethoxy]-3-methoxybenzyl]-1H-pyrazol-4-yl]propionic acid]?
**A.** inhibition in vivo at 0.001 % (KKA^y mice [1]; [3]): 40%; inhibition in vivo at 0.001 % (KKA^y mice [1]; [4]): 52%; change in vivo at 0.001 % (KKA^y mice [2]; [5]): 10%; inhibition in vivo at 0.001 % (KKA^y mice [2]; [6]): 19%

**Q.** Which “Hypoglycemic action (%)” value (KKA^y mice [1]; 0.001% in powdery diet, percent reduction of plasma glucose compared with the non-treatment group) does the source give for `CCOc1nn(Cc2ccc(OCc3nc(-c4cccs4)oc3C)c(OC)c2)cc1CCC(=O)O` [Example 176] here?
**A.** 40%

**Q.** What about the “Hypolipidemic action (%)” value (KKA^y mice [1]; 0.001% in powdery diet, percent reduction of plasma triglyceride compared with the non-treatment group) of the same compound?
**A.** 66%

**Q.** What about the “Plasma anti-arteriosclerosis index-enchancing action (%)” value (KKA^y mice [2]; [5]) of the same compound?
**A.** 11%

**Q.** And the “Total cholesterol lowering action (%)” value (KKA^y mice [2]; [6])?
**A.** 23%

**Q.** With `CCOc1nn(Cc2ccc(OCc3csc(-c4ccccc4)n3)cc2)cc1CCC(=O)O` [Example 181, 3-[3-ethoxy-1-[4-(2-phenyl-4-thiazolylmethoxy)benzyl]-1H-pyrazol-4-yl]propionic acid] as the compound, how does the inhibition in vivo at 0.005 % (KKA^y mice [1]; [7]) read?
**A.** 56%

**Q.** What about the inhibition in vivo at 0.005 % (KKA^y mice [1]; [8]) of the same compound?
**A.** 63%

**Q.** And the change in vivo at 0.005 % (KKA^y mice [2]; [9])?
**A.** 21%

**Q.** And the inhibition in vivo at 0.005 % (KKA^y mice [2]; [10])?
**A.** 25%

**Q.** Which inhibition in vivo at 0.005 % (KKA^y mice [1]; [7]) does the source give for `CCOc1nn(Cc2ccc(OCc3nc(-c4ccccc4)sc3C)cc2)cc1CCC(=O)O` [Example 182, 3-[3-ethoxy-1-[4-(5-methyl-2-phenyl-4-thiazolylmethoxy)benzyl]-1H-pyrazol-4-yl]propionic acid] here?
**A.** 34%

**Q.** And the inhibition in vivo at 0.005 % (KKA^y mice [1]; [8])?
**A.** 12%

**Q.** For `CCOc1nn(Cc2ccc(OCc3nc(-c4ccccc4)oc3C)nc2)cc1CCC(=O)O` [Example 184, 3-[3-ethoxy-1-[2-(5-methyl-2-phenyl-4-oxazolylmethoxy)-5-pyridylmethyl]-1H-pyrazol-4-yl]propionic acid], which inhibition in vivo at 0.005 % (KKA^y mice [1]; [7]) is on record?
**A.** 56%

**Q.** And the inhibition in vivo at 0.005 % (KKA^y mice [1]; [8])?
**A.** 82%

**Q.** And the change in vivo at 0.005 % (KKA^y mice [2]; [9])?
**A.** 17%

**Q.** What about the inhibition in vivo at 0.005 % (KKA^y mice [2]; [10]) of the same compound?
**A.** 27%

**Q.** Which results are given for `CCOc1nn(Cc2ccc(OCc3coc(-c4ccccc4)n3)cc2)cc1CCC(=O)O` [Example 186, 3-[3-ethoxy-1-[4-(2-phenyl-4-oxazolylmethoxy)benzyl]-1H-pyrazol-4-yl]propionic acid]?
**A.** inhibition in vivo at 0.01 % (KKA^y mice [1]; [7]): 57%; inhibition in vivo at 0.01 % (KKA^y mice [1]; [8]): 78%

**Q.** Which results are given for `CCOc1nn(Cc2ccc(OCc3nc(-c4cccs4)oc3C)cc2)cc1CCC(=O)O` [Example 189, 3-[3-ethoxy-1-[4-[5-methyl-2-(2-thienyl)-4-oxazolylmethoxy]benzyl]-1H-pyrazol-4-yl]propionic acid]?
**A.** inhibition in vivo at 0.001 % (KKA^y mice [1]; [3]): 44%; inhibition in vivo at 0.001 % (KKA^y mice [1]; [4]): 75%; change in vivo at 0.001 % (KKA^y mice [2]; [5]): 20%; inhibition in vivo at 0.001 % (KKA^y mice [2]; [6]): 21%
